From paper PMC5124248, “Antitumor activity of TY-011 against gastric cancer by inhibiting Aurora A, Aurora B and VEGFR2 kinases” (Journal of Experimental & Clinical Cancer Research : CR, 2016)

System: human MGC-803 xenograft
Assay: Antitumor activity in vivo, MGC-803 xenograft in nude mice
Design: species or system BALB/c nu/nu mice
Details: 50 mg/kg intraperitoneally twice a week
Procedure: The animals were housed in specific pathogen-free (SPF) conditions at Key Laboratory of Brain Functional Genomics, Ministry of Education, and were acclimatized for a week prior to use. […] When the tumors reached a mean group size of 100 ~ 150 mm^3, the mice were randomized into control and treatment groups to receive treatment accordingly. […] The tumor growth was recorded with the measurement of length (L) and width (W) by caliper every other day, and calculated as tumor volume (V) = L × W^2/2. Meanwhile, the body weights of mice were recorded. The tumor volume at day n was expressed as relative tumor volume (RTV) according to the following formula: RTV% = (TVn/TV0) ×100%, where TVn is the tumor volume at day n and TV0 is the tumor volume at day 0. The therapeutic effect of treatment was calculated with formula T/C (%) = mean RTV of the treated group/mean RTV of the control group × 100%. […] The tumor regression of individual mouse was defined as the tumor volume at the end was less than the tumor volume when treatment was initiated.

`CCc1c2c(nc3ccc(OC(=O)N4CCC(N5CCCCC5)CC4)cc13)-c1cc3c(c(=O)n1C2)COC(=O)[C@]3(O)CC` [Irinotecan, reference compound] was tested, and the “T/C (%)” value was 8.04%, the “Inhibition rate (%)” value (by tumor weight) was 96.2% and the “Body weight (g) End” value (mean ± SEM) was 21.4 ± 0.2 g. The “Tumor weight” value (mean ± SEM, control 0.79 g) was 0.03 ± 0.01 g.
